Measured values: patent US20230192617A1, “AZABICYCLIC(THIO)AMIDES AS FUNGICIDAL COMPOUNDS” (Bayer CropScience Aktiengesellschaft, priority 2020, published 2023)

Experiments:
[1] = test system: Colletotrichum lindemuthianum; assay: B-8. Colletotrichum lindemuthianum in vitro cell test; assay type: cell-based; details: 144 h, 20 ppm of active ingredient, 6 days incubation, liquid culture, absorbance, read-out: efficacy (inhibition of fungal growth)
Procedure, shortened: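 Liquid-culture germination/growth test: compounds in ≤1% final DMSO were added to spore-containing medium. Fungal growth was quantified spectrophotometrically after 6 days of incubation and expressed as inhibition versus untreated controls.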

[2] = Measurement of Log P values by HPLC on reversed phase columns (EEC directive 79/831 Annex V.A8); assay type: physicochemical; details: method [a]: LC-UV, acidic range, 0.1% formic acid in water and acetonitrile as eluent
Procedure, shortened: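 Log P derived from retention on reversed-phase columns (EEC directive 79/831 Annex V.A8), LC-UV, acetonitrile gradient 10% to 95% against water containing 0.1% formic acid, 0.001 M ammonium acetate, or 0.1% phosphoric acid; several values per method separated by "+".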

Botrytis cinerea [3] = assay: In vivo preventive test on Botrytis cinerea (grey mould); details: 500 ppm of active ingredient, preventive spray on gherkin or cabbage, evaluated 4 to 5 days after inoculation, read-out: efficacy
Procedure, shortened: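 Preventive spray on cabbage or gherkin seedlings, with compound formulated in DMSO/acetone/Tween 80 and water-diluted, preceded spore inoculation by 24 hours. Cabbage was held 4 to 5 days at 20° C., 100% relative humidity; gherkin 4 to 5 days at 17° C., 90% relative humidity.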

Pyrenophora teres = assay: B-10. Pyrenophora teres in vitro cell test; assay type: cell-based; details: 144 h, 20 ppm of active ingredient, 6 days incubation, liquid culture, absorbance, read-out: efficacy (inhibition of fungal growth)
Procedure, shortened: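 Liquid-culture assay on a P. teres spore suspension with compounds added to the medium from DMSO solutions, final DMSO ≤1%. Mycelium growth read spectrometrically after 6 days. Inhibition calculated from absorbance against untreated control wells.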

Alternaria brassicae = assay: In vivo preventive test on Alternaria brassicae (leaf spot on radish or cabbage); details: 500 ppm of active ingredient, preventive spray on radish or cabbage, evaluated 3 to 4 days after inoculation, read-out: efficacy
Procedure, shortened: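 Protective spray on young radish or cabbage: actives in water diluted from DMSO/acetone/Tween 80, with solvent-only controls. Leaves were challenged after 24 h with a spore suspension, and plants were held at 100% RH, 20 °C for 3 to 4 days.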

Botrytis cinerea [4] = assay: B-11. Botrytis cinerea in vitro cell test; assay type: cell-based; details: 144 h, 20 ppm of active ingredient, 6 days incubation, liquid culture, absorbance, read-out: efficacy (inhibition of fungal growth)
Procedure, shortened: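 B. cinerea spores were grown in liquid culture with compound (DMSO ≤1% final). Mycelium growth was measured spectrometrically after 6 days, with inhibition taken as absorbance relative to untreated control wells.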

Sphaerotheca fuliginea = assay: In vivo preventive test on Sphaerotheca fuliginea (powdery mildew on cucurbits); details: Podosphaera fuliginea, 192 h; 500 ppm of active ingredient; preventive spray on gherkin; evaluated 8 days after inoculation; read-out: efficacy
Procedure: B-4. in vivo preventive test on Sphaerotheca fuliginea (powdery mildew on cucurbits) [table] The active ingredients were made soluble and homogenized in a mixture of Dimethyl sulfoxide/Acetone/Tween® 80 and then diluted in water to the desired concentration. The young plants of gherkin were treated by spraying the active ingredient prepared as described above. Control plants were treated only with an aqueous solution of Acetone/Dimethyl sulfoxide/Tween® 80. After 24 hours, the plants were contaminated by spraying the leaves with an aqueous suspension of Sphaerotheca fuliginea spores. The contaminated gherkin plants were incubated for 8 days at 20° C. and at 70-80% relative humidity.

[5] = test system: Colletotrichum lindemuthianum; assay: In vivo preventive test on Colletotrichum lindemuthianum (leaf spot on bean); details: 168 h, 500 ppm of active ingredient, preventive spray on bean, evaluated 7 days after inoculation, read-out: efficacy
Procedure: B-5. In Vivo Preventive Test on Colletotrichum lindemuthianum (Leaf Spot on Bean) [table] The active ingredients were made soluble and homogenized in a mixture of Dimethyl sulfoxide/Acetone/Tween® 80 and then diluted in water to the desired concentration. The young plants of bean were treated by spraying the active ingredient prepared as described above. Control plants were treated only with an aqueous solution of Acetone/Dimethyl sulfoxide/Tween® 80. After 24 hours, the plants were contaminated by spraying the leaves with an aqueous suspension of Colletotrichum lindemuthianum spores. The contaminated bean plants were incubated for 24 hours at 20° C. and at 100% relative humidity and then for 6 days at 20° C. and at 90% relative humidity.

Alternaria alternata = Alternaria alternata in vitro cell test; assay type: cell-based; details: 120 h, 20 ppm of active ingredient, liquid culture, 5 days incubation, spectrometric measurement of mycelium growth, read-out: efficacy (inhibition of fungal growth)
Procedure, shortened: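 Spectrometric readout of mycelial growth after 5-day incubation gauged compound effects on spore germination and growth of A. alternata in liquid medium. Compounds were delivered in DMSO at ≤1% final. Absorbance was compared with untreated controls to give inhibition.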

SMILES	chromatographic logP ([2]; reversed phase HPLC column)	inhibition at 20 ppm [1]	pest or weed control at 500 ppm (Botrytis cinerea [3])	inhibition at 20 ppm (Pyrenophora teres)	pest or weed control at 500 ppm (Alternaria brassicae)	inhibition at 20 ppm (Botrytis cinerea [4])	pest or weed control at 500 ppm (Sphaerotheca fuliginea)	pest or weed control at 500 ppm [5]	inhibition at 20 ppm (Alternaria alternata)	chromatographic logP [2]
O=C(c1c(Oc2cccc(C(F)(F)F)c2)nnc2ccccc12)N(O)CCc1ccc(Cl)cc1 [I-167]	3.84	80 to 89%	70 to 79%	90 to 100%	90 to 100%	90 to 100%		80 to 89%		
O=C(NCCc1ccc2c(c1)OCCO2)c1c(Oc2cccc(C(F)(F)F)c2)nnc2ccccc12 [I-086]		90 to 100%	90 to 100%	90 to 100%	90 to 100%	90 to 100%		90 to 100%	90 to 100%	3.42
O=C(NCC(F)(F)c1ccc(Cl)cc1)c1c(Oc2cccc(C(F)F)c2)nnc2ccccc12 [I-034]	3.68	90 to 100%	90 to 100%		90 to 100%			80 to 89%	90 to 100%	
Cc1ccc2c(c1)CCC[C@@H]2NC(=O)c1c(Oc2cccc(C(F)(F)F)c2)nnc2ccccc12 (racemic) [I-078]	4.47	90 to 100%	90 to 100%	90 to 100%	90 to 100%	90 to 100%	90 to 100%		90 to 100%	
COc1cc([C@@H](F)CNC(=O)c2c(Oc3cccc(Cl)c3)nnc3ccccc23)ccc1Cl (racemic) [I-050]	3.77	90 to 100%	80 to 89%		90 to 100%	90 to 100%		80 to 89%	90 to 100%	
Cc1ccc(C(F)(F)CNC(=O)c2c(Oc3cccc(C(F)(F)F)c3)nnc3cc(F)ccc23)cc1C [I-175]	4.62	90 to 100%		90 to 100%	90 to 100%	90 to 100%		80 to 89%	90 to 100%	
O=C(N[C@H]1CCOc2ccccc21)c1c(Oc2cccc(C(F)(F)F)c2)nnc2ccccc12 [I-172]	3.65	90 to 100%		90 to 100%	90 to 100%	90 to 100%	80 to 89%		90 to 100%	
O=C(NCC(F)(F)c1ccc(C2=CCCC2)cc1Cl)c1c(Oc2cccc(C(F)(F)F)c2)nnc2ccccc12 [I-073]	5.4		90 to 100%	90 to 100%	90 to 100%	90 to 100%		80 to 89%		

Further lines, with some results ahead:

chromatographic logP ([2]; reversed phase HPLC column)	SMILES	inhibition at 20 ppm [1]	pest or weed control at 500 ppm (Botrytis cinerea [3])	inhibition at 20 ppm (Pyrenophora teres)	pest or weed control at 500 ppm (Alternaria brassicae)	inhibition at 20 ppm (Botrytis cinerea [4])	pest or weed control at 500 ppm (Sphaerotheca fuliginea)	pest or weed control at 500 ppm [5]	inhibition at 20 ppm (Alternaria alternata)	chromatographic logP [2]
4.85	Cc1ccc(C(F)(F)CNC(=O)c2c(Oc3cccc(C(F)(F)F)c3)nnc3c2CCC3(C)C)c(C)c1 [I-232]	70 to 79%	90 to 100%	90 to 100%	80 to 89%	90 to 100%	90 to 100%			
4.13	C#Cc1cccc(Oc2cnc3ccccc3c2C(=O)NCC(F)(F)c2ccc(C)cc2C)c1 [I-215]	90 to 100%	90 to 100%	90 to 100%	80 to 89%	90 to 100%	90 to 100%		80 to 89%	
4.59	Cc1ccc(C(F)(F)CNC(=O)c2c(Oc3cccc(C(F)(F)F)c3)c(C)nc3ccccc23)c(C)c1 [I-185]			90 to 100%	70 to 79%		90 to 100%		80 to 89%	
4.43	Cc1ccc(C(F)(F)CNC(=O)c2c(Oc3cccc(Br)c3F)cnc3ccccc23)c(C)c1 [I-225]	90 to 100%	90 to 100%	90 to 100%	70 to 79%	90 to 100%	90 to 100%		90 to 100%	
